According to ChEMBL document CHEMBL1125620, “Synthesis and biological evaluation of a series of substituted N-alkoxyimides and -amides as potential atypical antipsychotic agents” (J Med Chem, 1991):

What was measured:
[1] = target: T1, 5-hydroxytryptamine receptor 1A (Rattus norvegicus, UniProt P19327); assay: Affinity for 5-hydroxytryptamine 1A receptor labeled with [3H]8-OH-DPAT radioligand in hippocampus tissue; format: tissue-based
T1 sequence (P19327 whole entry): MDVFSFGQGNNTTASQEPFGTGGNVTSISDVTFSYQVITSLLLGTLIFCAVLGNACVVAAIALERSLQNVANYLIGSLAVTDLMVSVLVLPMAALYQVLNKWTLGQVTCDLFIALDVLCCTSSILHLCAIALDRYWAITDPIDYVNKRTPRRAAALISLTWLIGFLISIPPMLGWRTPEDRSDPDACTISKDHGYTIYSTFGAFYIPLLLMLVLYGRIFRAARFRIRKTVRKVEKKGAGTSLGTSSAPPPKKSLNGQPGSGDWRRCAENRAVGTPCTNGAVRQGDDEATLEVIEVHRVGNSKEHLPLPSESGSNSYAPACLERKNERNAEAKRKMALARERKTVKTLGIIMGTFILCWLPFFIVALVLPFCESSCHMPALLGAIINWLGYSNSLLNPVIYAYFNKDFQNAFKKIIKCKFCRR

Mus musculus = assay: Inhibition of apomorphine induced mouse climbing, administered intraperitoneally; format: functional; conditions: ip
[2] = target: Serotonin 2 (5-HT2) receptor (Rattus norvegicus, UniProt P30994+P08909+P14842); assay: Compound was measured for affinity at 5-hydroxytryptamine 2 receptor in rat cortical by [3H]spiroperidol displacement.
[3] = target: 5-hydroxytryptamine receptor 1B (Rattus norvegicus, UniProt P28564); assay: compound was measured for affinity against 5-hydroxytryptamine 1B receptor labelled with [3H]5-HT radioligand in striatum tissue; format: tissue-based
[4] = target: T2, Alpha adrenergic receptor 1A and 1B (Rattus norvegicus, UniProt P15823+P43140); assay: compound was measured as affinity for Alpha-1 adrenergic receptor labeled with [3H]WB-4101 radioligand in whole brain tissue
T2 sequence (P15823 whole entry): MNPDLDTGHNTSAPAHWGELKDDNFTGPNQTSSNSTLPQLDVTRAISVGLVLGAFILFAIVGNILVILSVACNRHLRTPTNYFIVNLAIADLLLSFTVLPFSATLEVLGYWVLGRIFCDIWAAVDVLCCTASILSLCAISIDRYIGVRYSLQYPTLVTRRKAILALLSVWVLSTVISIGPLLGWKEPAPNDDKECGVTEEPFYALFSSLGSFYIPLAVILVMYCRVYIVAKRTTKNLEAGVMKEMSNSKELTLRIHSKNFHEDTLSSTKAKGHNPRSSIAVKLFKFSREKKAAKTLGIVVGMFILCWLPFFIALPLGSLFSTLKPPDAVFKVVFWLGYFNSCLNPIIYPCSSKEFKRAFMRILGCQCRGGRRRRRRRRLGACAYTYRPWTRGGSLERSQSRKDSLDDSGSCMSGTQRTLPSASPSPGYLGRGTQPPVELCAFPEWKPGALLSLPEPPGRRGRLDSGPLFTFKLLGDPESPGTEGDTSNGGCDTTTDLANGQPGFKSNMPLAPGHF
T2 sequence (P43140 whole entry): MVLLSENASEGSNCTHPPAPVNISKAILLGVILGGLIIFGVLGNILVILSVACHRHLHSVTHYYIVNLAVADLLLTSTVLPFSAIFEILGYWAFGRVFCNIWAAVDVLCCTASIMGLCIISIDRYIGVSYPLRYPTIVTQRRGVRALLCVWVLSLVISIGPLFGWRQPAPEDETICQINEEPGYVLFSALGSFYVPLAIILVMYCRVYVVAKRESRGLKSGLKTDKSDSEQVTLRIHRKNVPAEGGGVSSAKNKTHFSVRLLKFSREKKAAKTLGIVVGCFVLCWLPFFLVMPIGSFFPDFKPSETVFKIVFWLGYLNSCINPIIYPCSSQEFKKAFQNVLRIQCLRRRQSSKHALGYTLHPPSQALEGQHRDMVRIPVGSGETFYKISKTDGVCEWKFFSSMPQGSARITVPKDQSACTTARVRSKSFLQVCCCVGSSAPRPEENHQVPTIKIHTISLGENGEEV

D(1A) dopamine receptor = D(1A) dopamine receptor (Rattus norvegicus, UniProt P18901); assay: compound was measured as affinity for dopamine receptor D1 labeled with [3H]-SCH- 23390 radioligand in striatum tissue; format: tissue-based
Rattus norvegicus [5] = assay: In vivo activity administered intraperitoneally was determined by pole climb escape failures in rat; format: functional; conditions: ip
Rattus norvegicus [6] = assay: In vivo activity administered orally was determined by intracranial self stimulation in rat; format: functional; conditions: po
Rattus norvegicus [7] = assay: In vivo activity was measured by the pole climb avoidance in rat; format: functional
Rattus norvegicus [8] = assay: In vivo inhibition of apomorphine induced stereotypy in rat by the compound administered intraperitoneally; format: functional; conditions: ip
Rattus norvegicus [9] = assay: In vivo inhibition of amphetamine induced stereotypy in rat by the compound administered intraperitoneally at […]; format: functional
[10] = target: Sigma non-opioid intracellular receptor 1 (Rattus norvegicus, UniProt Q9R0C9); assay: compound was measured as affinity for sigma receptor labeled with [3H]-SKF- […] radioligand in slide-mounted slices
Rattus norvegicus [11] = assay: In vivo activity administered intraperitoneally was determined by social interaction in rat at 1.0 mg/kg
Rattus norvegicus [12] = assay: In vivo activity administered intraperitoneally was determined by induction of catalepsy in rat at 30 mg/kg
Rattus norvegicus [13] = assay: In vivo activity administered intraperitoneally was determined by induction of catalepsy in rat at 40 mg/kg
D(2) dopamine receptor = D(2) dopamine receptor (Rattus norvegicus, UniProt P61169); assay: Compound was measured for affinity at Dopamine receptor D2 labeled with [3H]spiroperidol radioligand in striatum tissue; format: tissue-based
Rattus norvegicus [14] = assay: In vivo activity administered intraperitoneally was determined by induction of catalepsy in rat; format: functional; conditions: ip
Rattus norvegicus [15] = assay: In vivo activity administered intraperitoneally was determined by intracranial self stimulation in rat; format: functional; conditions: ip
Rattus norvegicus [16] = assay: In vivo activity administered intraperitoneally was determined by pole climb avoidance in rat; format: functional; conditions: ip
Rattus norvegicus [17] = assay: Activity administered intraperitoneally was determined by social interaction of rat at […]; format: functional
Rattus norvegicus [18] = assay: In vivo activity was measured by the intracranial self stimulation in rat; format: functional
Rattus norvegicus [19] = assay: In vivo inhibition of amphetamine induced stereotypy in rat by the compound administered intraperitoneally; format: functional; conditions: ip
Rattus norvegicus [20] = assay: In vivo activity administered intraperitoneally was determined by induction of catalepsy in rat at […]; format: functional
Rattus norvegicus [21] = assay: In vivo activity administered intraperitoneally was determined by social interaction of rat at […]; format: functional

Sequence of D(2) dopamine receptor (P61169 whole entry): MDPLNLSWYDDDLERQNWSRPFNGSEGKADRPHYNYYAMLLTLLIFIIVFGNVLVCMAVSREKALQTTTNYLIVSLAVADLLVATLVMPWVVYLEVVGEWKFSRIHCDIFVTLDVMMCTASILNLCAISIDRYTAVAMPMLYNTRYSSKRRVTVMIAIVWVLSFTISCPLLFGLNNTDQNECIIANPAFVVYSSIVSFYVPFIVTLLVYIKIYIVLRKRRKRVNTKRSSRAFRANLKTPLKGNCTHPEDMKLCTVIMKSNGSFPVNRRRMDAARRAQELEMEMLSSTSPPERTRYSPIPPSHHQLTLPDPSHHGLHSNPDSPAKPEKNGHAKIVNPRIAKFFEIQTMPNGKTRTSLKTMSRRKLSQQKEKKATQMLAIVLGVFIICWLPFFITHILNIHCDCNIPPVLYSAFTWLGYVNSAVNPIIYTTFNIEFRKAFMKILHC
Sequence of D(1A) dopamine receptor (P18901 whole entry): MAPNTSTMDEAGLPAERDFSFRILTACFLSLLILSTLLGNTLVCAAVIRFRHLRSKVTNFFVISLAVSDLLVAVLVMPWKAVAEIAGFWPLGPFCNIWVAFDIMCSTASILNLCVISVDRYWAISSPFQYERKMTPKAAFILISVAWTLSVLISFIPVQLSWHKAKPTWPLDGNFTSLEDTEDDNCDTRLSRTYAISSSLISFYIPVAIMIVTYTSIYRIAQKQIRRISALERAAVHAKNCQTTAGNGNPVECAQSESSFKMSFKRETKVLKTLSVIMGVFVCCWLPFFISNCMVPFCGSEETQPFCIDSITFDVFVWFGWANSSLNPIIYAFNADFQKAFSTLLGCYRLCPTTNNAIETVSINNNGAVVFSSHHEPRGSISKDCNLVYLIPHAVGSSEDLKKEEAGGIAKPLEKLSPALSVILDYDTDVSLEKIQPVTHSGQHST
Sequence of 5-hydroxytryptamine receptor 1B (P28564 whole entry): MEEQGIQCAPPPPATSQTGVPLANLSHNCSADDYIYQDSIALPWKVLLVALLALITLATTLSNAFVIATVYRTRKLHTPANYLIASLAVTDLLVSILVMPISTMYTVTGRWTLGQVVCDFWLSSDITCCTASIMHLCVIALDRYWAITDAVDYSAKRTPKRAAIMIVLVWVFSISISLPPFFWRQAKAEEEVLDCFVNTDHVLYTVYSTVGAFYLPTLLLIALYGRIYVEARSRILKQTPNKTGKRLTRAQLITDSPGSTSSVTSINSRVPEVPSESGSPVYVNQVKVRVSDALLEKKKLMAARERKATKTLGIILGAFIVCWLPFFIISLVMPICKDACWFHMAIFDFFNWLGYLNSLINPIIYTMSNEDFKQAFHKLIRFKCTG
Sequence of Sigma non-opioid intracellular receptor 1 (Q9R0C9 whole entry): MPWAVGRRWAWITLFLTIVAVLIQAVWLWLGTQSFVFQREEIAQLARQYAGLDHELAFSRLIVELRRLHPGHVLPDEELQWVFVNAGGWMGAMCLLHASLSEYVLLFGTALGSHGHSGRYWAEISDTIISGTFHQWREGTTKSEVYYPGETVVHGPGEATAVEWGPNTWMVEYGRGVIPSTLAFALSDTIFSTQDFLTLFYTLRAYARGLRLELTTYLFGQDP

Row | Structure (SMILES) | IC50 [1] [nM] | IC50 [2] [nM] | ED50 (Mus musculus) [mg/kg] | other results
1 | O=C1CC2(CCCC2)CC(=O)N1OCCCN1CCN(C2=NS(=O)(=O)c3ccccc32)CC1 | > 20000 | > 20000 | > 20 | 
2 | O=C1c2ccccc2C(=O)N1OCCCN1CCN(c2cccc(Cl)c2)CC1 |  |  | > 20 | 
3 | O=C1CC2(CCCC2)CC(=O)N1OCCCN1CCN(c2ncccn2)CC1 | 380 |  | > 20 | 
4 | CSc1cccc(N2CCN(CCCON3C(=O)c4ccccc4C3=O)CC2)c1 |  |  | > 20 | 
5 | Cc1cccc(N2CCN(CCCON3C(=O)c4ccccc4C3=O)CC2)c1 |  |  | > 20 | 
6 | COc1ccccc1N1CCN(CCCON2C(=O)c3ccccc3C2=O)CC1 | 6900 |  | > 20 | IC50 (D(2) dopamine receptor): > 20000 nM
7 | O=C1c2ccccc2C(=O)N1OCCCN1CCN(c2cccc(C(F)(F)F)c2)CC1 |  |  | > 20 | IC50 (D(2) dopamine receptor): > 20000 nM
8 | Cc1nc2n(c(=O)c1CCN1CCC(c3noc4cc(F)ccc34)CC1)CCCC2 [RISPERIDONE] |  |  | 0.06 | ED50 (Rattus norvegicus [5]): 1.3 mg/kg; ED50 (Rattus norvegicus [14]): 5.7 mg/kg; ED50 (Rattus norvegicus [15]): 0.13 mg/kg; ED50 (Rattus norvegicus [16]): 0.48 mg/kg; ED50 (Rattus norvegicus [8]): 3.2 mg/kg; Inhibition (Rattus norvegicus [17]): 27%
9 | O=C1CC2(CCCC2)CC(=O)N1OCCCN1CCN(c2ccc3ccccc3n2)CC1 |  |  | > 20 | 
10 | Cc1ccccc1N1CCN(CCCON2C(=O)c3ccccc3C2=O)CC1 |  |  | > 20 | 
11 | CN1CCN(C2=Nc3cc(Cl)ccc3Nc3ccccc32)CC1 [CLOZAPINE] |  |  | 8.1 | ED50 (Rattus norvegicus [5]): > 80 mg/kg; ED50 (Rattus norvegicus [15]): 9.1 mg/kg; ED50 (Rattus norvegicus [16]): 13.1 mg/kg
12 | O=C1CC2(CCCC2)CC(=O)N1OCCN1CCN(c2ncccn2)CC1 |  |  | > 20 | 
13 | O=C(CCCN1CCC(O)(c2ccc(Cl)cc2)CC1)c1ccc(F)cc1 [HALOPERIDOL] |  |  | 0.25 | ED50 (Rattus norvegicus [5]): 7.3 mg/kg; ED50 (Rattus norvegicus [18]): 0.077 mg/kg; ED50 (Rattus norvegicus [14]): 0.659 mg/kg; ED50 (Rattus norvegicus [16]): 0.53 mg/kg; ED50 (Rattus norvegicus [19]): 0.215 mg/kg; ED50 (Rattus norvegicus [8]): 0.31 mg/kg
14 | O=C1c2ccccc2C(=O)N1OCCCN1CCN(c2nsc3ccccc23)CC1 | > 20000 |  | > 20 | 
15 | O=C1c2ccccc2C(=O)N1OCCCN1CCN(c2ccc3ccccc3n2)CC1 |  |  | > 20 | 
16 | O=C1CC2(CCCC2)CC(=O)N1CCCCN1CCN(c2nsc3ccccc23)CC1 [TIOSPIRONE] |  |  | 0.84 | ED50 (Rattus norvegicus [5]): 2.77 mg/kg; ED50 (Rattus norvegicus [15]): 0.124 mg/kg; ED50 (Rattus norvegicus [16]): 0.93 mg/kg; ED50 (Rattus norvegicus [8]): 3.7 mg/kg; Inhibition (Rattus norvegicus [20]): 67%; Inhibition (Rattus norvegicus [21]): 34%
17 | O=C1CC2(CCCC2)CC(=O)N1OCCN1CCN(c2nsc3ccccc23)CC1 | 970 | 240 | > 20 | 
18 | O=C1CC2(CCCC2)CC(=O)N1OCCCN1CCN(c2cccc(C(F)(F)F)c2)CC1 | 30 |  | > 20 | 
19 | CSc1cccc(N2CCN(CCCON3C(=O)CC4(CCCC4)CC3=O)CC2)c1 | 50 |  | > 20 | 

Second part, led by results:

Row | IC50 [1] [nM] | IC50 [2] [nM] | Structure (SMILES) | ED50 (Mus musculus) [mg/kg] | other results
20 | 40 |  | O=C1CC2(CCCC2)CC(=O)N1OCCCN1CCN(c2cccc(Cl)c2)CC1 | > 20 | 
21 | 110 | 20 | O=C1CC2(CCCC2)CC(=O)N1OCCCN1CCN(c2nsc3ccccc23)CC1 | 5.7 | IC50 [3]: 5530 nM; IC50 [4]: 10 nM; IC50 (D(1A) dopamine receptor): 6600 nM; ED50 (Rattus norvegicus [5]): > 20 mg/kg; ED50 (Rattus norvegicus [6]): 12.5 mg/kg; ED50 (Rattus norvegicus [7]): 2.5 mg/kg; ED50 (Rattus norvegicus [8]): 35.4 mg/kg; Inhibition (Rattus norvegicus [9]): 17%; IC50 [10]: 1100 nM; Increase (Rattus norvegicus [11]): 24%; Catalepsy (Rattus norvegicus [12]): 33%; Catalepsy (Rattus norvegicus [13]): 83%
22 | 80 | 10 | O=C1CC2(CCCC2)CC(O)N1OCCCN1CCN(c2nsc3ccccc23)CC1 (stereo unspecified) | > 20 | 
23 | 30 | 10 | O=C1CC2(CCCC2)CCN1OCCCN1CCN(c2nsc3ccccc23)CC1 | 17.8 | 
24 | 60 |  | COc1ccccc1N1CCN(CCCON2C(=O)CC3(CCCC3)CC2O)CC1 (stereo unspecified) | > 20 | 
25 | 370 | 3200 | COc1ccccc1N1CCN(CCON2C(=O)CC3(CCCC3)CC2=O)CC1 | > 20 | 
26 | 90 | 390 | Cc1cccc(N2CCN(CCCON3C(=O)CC4(CCCC4)CC3=O)CC2)c1 | 26.5 | 
27 | 170 | 250 | Cc1cccc(N2CCN(CCCON3C(=O)CC4(CCCC4)CC3=O)CC2)c1C | 39.7 | 
28 | 110 | 1190 | COc1ccccc1N1CCN(CCCON2C(=O)CC3(CCCC3)CC2=O)CC1 | 11 | 
29 | 70 | 2700 | COc1ccccc1N1CCN(CCCON2CCC3(CCCC3)CC2=O)CC1 | > 20 | 
30 | 220 |  | O=C1CC2(CCCC2)CC(=O)N1OCCCN1CCN(c2ccccc2Cl)CC1 | > 20 | 
31 | 2200 | 8100 | O=C1CC2(CCCC2)CC(=O)N1OCCCN1CCN(c2nc3ccccc3s2)CC1 | > 20 | 
